Values after ≈ are worked out from the molar mass of the structure shown.
Experiment: Solubility in processing solvents (Table 1, Compound Properties)
Assay type: physicochemical
Details: for Solubility anisole: solvent anisole; for Solubility toluene: solvent toluene
Protocol: It is also noted that solubility of the chrysene derivative materials in processing solvents can be adjusted to satisfy solution processing requirements. In some embodiments the solubility of chrysene derivatives in toluene and anisole is higher than 20 mg per ml of solvent. High solubility allows for better solution processing of electroactive devices.

Row | Structure (SMILES) | Solubility anisole | Solubility toluene | solubility properties (compared with compound C1 of Table 1)
1 | CC(C)(C)c1ccc(N(c2ccc(-c3ccccc3)cc2)c2ccc3ccc4c5ccccc5ccc4c3c2)cc1 [Compound C3, N-(biphenyl-4-yl)-N-(4-tert-butylphenyl)chrysene-3-amine] | 22.4 mg/mL (≈ 42.4 mM) | 22.2 mg/mL (≈ 42.1 mM) | –
2 | c1ccc(-c2ccc(N(c3ccc(-c4cccc5ccccc45)cc3)c3ccc4ccc5c6ccccc6ccc5c4c3)cc2)cc1 [Compound C5] | 23.7 mg/mL (≈ 39.6 mM) | 24.4 mg/mL (≈ 40.8 mM) | –
3 | [2H]c1c([2H])c([2H])c(-c2c([2H])c([2H])c(N(c3c([2H])c([2H])c(-c4c([2H])c([2H])c([2H])c(-c5c([2H])c([2H])c([2H])c([2H])c5[2H])c4[2H])c([2H])c3[2H])c3c([2H])c([2H])c4c([2H])c([2H])c5c6c([2H])c([2H])c([2H])c([2H])c6c([2H])c([2H])c5c4c3[2H])c([2H])c2[2H])c([2H])c1[2H] [Compound C2, Perdeutero-N-([1,1′-biphenyl]-4-yl)-N-([1,1′:3′,1″-terphenyl]-4-yl)chrysen-3-amine] | – | – | very similar to those of compound C1
4 | Cc1ccc(N(c2ccc(-c3ccc(-c4ccccc4)cc3)cc2)c2ccc3ccc4c5ccccc5ccc4c3c2)c(C)c1 [Compound C4] | 3.6 mg/mL (≈ 6.25 mM) | 1.0 mg/mL (≈ 1.74 mM) | –
5 | c1ccc(-c2ccc(N(c3ccc(-c4cccc(-c5ccccc5)c4)cc3)c3ccc4ccc5c6ccccc6ccc5c4c3)cc2)cc1 [Compound C1] | 23.9 mg/mL (≈ 38.3 mM) | 24.6 mg/mL (≈ 39.4 mM) | –

From US8968883B2, “Chrysene derivative materials” (E I du Pont de Nemours and Company, priority 2009, dated 2015)
